Values quoted from earlier work as cited in patent US20140243418A1, “RASAGILINE FOR PARKINSON'S DISEASE MODIFICATION” (Teva Pharmaceutical Industries, Ltd., priority 2008, published 2014).

What was measured:
[1] = target: T1, Type-B Monoamine Oxidase (MAO-B) (Homo sapiens, UniProt P27338); conditions: cited from earlier work
T1 sequence (P27338 1-520): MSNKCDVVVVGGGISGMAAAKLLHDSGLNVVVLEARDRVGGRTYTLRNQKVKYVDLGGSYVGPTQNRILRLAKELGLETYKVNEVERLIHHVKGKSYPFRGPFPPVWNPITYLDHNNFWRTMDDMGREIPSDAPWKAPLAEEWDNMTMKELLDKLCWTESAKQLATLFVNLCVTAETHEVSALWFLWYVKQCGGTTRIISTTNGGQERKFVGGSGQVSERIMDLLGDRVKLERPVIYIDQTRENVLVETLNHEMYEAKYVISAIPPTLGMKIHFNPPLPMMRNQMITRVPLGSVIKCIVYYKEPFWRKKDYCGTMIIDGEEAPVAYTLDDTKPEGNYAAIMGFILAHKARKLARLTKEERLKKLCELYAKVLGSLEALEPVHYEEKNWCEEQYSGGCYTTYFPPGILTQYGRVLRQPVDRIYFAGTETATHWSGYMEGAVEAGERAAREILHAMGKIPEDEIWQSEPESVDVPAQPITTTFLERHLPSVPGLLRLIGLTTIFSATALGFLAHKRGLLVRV

Parkinson's disease [2] = conditions: three doses tested; time to need for levodopa as primary endpoint; cited from earlier work
Parkinson's disease [3] = conditions: 12 months of treatment and 2 months of drug wash-out; vs placebo; cited from earlier work

C#CCN(C)CC1=Cc2ccccc2Oc2ccccc21.O=C(O)/C=C\C(=O)O [TCH346]
inhibition of Type-B Monoamine Oxidase (MAO-B) [1]: did not inhibit | effect on primary or secondary endpoints (Parkinson's disease [2]): did not demonstrate a positive effect

C#CCN(C)[C@H](C)Cc1ccccc1 [selegiline]
deterioration from baseline in UPDRS motor score (Parkinson's disease [3]): less deterioration from baseline than patients treated with placebo
